{"source": "patent US6492137B1", "about": "“Response element compositions and assays employing same” (The Salk Institute for Biological Studies, priority 1989, dated 2002)", "target": "T1, VDR (Homo sapiens, UniProt P11473)", "T1 sequence (P11473 1-427)": "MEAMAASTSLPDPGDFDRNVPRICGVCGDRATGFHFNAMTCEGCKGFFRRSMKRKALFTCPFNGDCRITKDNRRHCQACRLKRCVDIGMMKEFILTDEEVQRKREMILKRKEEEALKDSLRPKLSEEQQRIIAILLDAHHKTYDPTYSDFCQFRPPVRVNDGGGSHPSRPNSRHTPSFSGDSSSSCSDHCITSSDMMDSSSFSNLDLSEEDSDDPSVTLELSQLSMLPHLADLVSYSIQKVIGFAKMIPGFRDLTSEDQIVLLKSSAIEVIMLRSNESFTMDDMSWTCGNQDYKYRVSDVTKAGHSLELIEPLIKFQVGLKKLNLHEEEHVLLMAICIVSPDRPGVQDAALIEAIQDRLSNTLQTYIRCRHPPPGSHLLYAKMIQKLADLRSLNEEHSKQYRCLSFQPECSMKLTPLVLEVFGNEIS", "experiment": "ΔSV-CAT reporter cotransfection assay in CV-1 cells with VDR expression plasmid, ±VD3", "format": "cell-based", "design": "expressed in transfected cells; host or cells: CV-1 (monkey kidney)", "settings": "VD3 100 nM", "description": "Receptor expression plasmids used in the following cotransfection assays have been described previously (pRShTRβ [see Thompson, et al., Proc. Natl. Acad. Sci. U.S.A. 86: 3494-3498 (1989)]; pRShRARα [see Giguere, et al., Nature 330: 624-629 (1987)]; pRShRARβ and pRshRARγ [see Ishikawa, et al., Mol. Endocrinol, 4: 837-844 (1990)]; and pRShVDR, [Schule, et al., Cell 61: 497-504 (1990)]. A basal reporter plasmid ΔSV-CAT was constructed by replacing the TK promoter in TK-CAT [Damm, et al., Nature 339: 593-597 (1989)] with the SphI-HindIII fragment of the SV40 early promoter. All of the recombinant CAT reporter plasmids used herein harbor a single copy of the indicated oligonucleotides at the unique HindIII site upstream of the SV40 promoter. Identity of the inserted oligonucleotides was confirmed by sequencing. To improve production of receptor proteins in COS cells, a new eukaryotic expression vector pCMX was prepared by modifying the plasmid CDM8 [Seed, B., Nature 329: 840-842 (1987)]. The CDM8 was cut with MluI and StuI in order to release the DNA fragment encoding the CMV/T7 promoter, SV40 small t intron/poly A signal, polyoma virus enhancer/origin, and SV40 enhancer/origin. The resulting fragment was ligated to a larger fragment of PvuII-digested PUC19. An internal deletion was introduced between unique BamHI and BclI sites present in the DCM8 portion. […]", "data": [{"substance": "GDR-3: identical to DR-3 except half-site changed to AGAACA, a GRE half-site (SEQ ID NO:26) (AGCTTCAGAACAAGGAGAACAGAGAGCT; DNA, backbone not given here; double-stranded DNA response element with agct overhangs, cloned into reporter)", "values": [{"measurement": "vitamin D3 response (in words)", "result": "completely inactive"}]}, {"substance": "GDR-4: identical to DR-4 except half-site changed to AGAACA, a GRE half-site (SEQ ID NO:28) (AGCTTCAGAACACAGGAGAACAGAGAGCT; DNA, backbone not given here; double-stranded DNA response element with agct overhangs, cloned into reporter)", "values": [{"measurement": "vitamin D3 response (in words)", "result": "completely inactive"}]}]}
